Laboratory results from US20240299557A1, “COMPOUND FOR DEGRADING DEOXYRIBONUCLEIC ACID (DNA) POLYMERASE, AND USE THEREOF” (TAIBIDI PHARMACEUTICAL TECHNOLOGY (SHIJIAZHUANG) CO., LTD., priority 2021, published 2024).
Where a SMILES comes first, the peptide text is derived from it. The star is where a group is joined. Cbz = O=C(OCc1ccccc1)*

Assays:
[1] = molecular target: T1, HBV P protein (DNA polymerase) (Hepatitis B virus genotype D subtype ayw, UniProt P03156); assay: Degradation of HBV P protein (DNA polymerase) in Huh7-HBP cell line (Nano-Glo HiBiT/LgBiT luminescence); format: cell-based; conditions: read-out: Degradation activity of DNA polymerase at different concentrations of compounds; for inhibition at 0.1 µM: 100 nM; for inhibition at 0.3 µM: 300 nM; for inhibition at 1 µM: 1000 nM; for inhibition at 3 µM: 3000 nM; for inhibition at 10 µM: 10000 nM
T1 construct: expressed in transfected cells; host or cells: Huh7-LgBiT cells transduced with pLVX-HBP-Puro lentivirus (Huh7-HBP)
T1 sequence (P03156 whole entry): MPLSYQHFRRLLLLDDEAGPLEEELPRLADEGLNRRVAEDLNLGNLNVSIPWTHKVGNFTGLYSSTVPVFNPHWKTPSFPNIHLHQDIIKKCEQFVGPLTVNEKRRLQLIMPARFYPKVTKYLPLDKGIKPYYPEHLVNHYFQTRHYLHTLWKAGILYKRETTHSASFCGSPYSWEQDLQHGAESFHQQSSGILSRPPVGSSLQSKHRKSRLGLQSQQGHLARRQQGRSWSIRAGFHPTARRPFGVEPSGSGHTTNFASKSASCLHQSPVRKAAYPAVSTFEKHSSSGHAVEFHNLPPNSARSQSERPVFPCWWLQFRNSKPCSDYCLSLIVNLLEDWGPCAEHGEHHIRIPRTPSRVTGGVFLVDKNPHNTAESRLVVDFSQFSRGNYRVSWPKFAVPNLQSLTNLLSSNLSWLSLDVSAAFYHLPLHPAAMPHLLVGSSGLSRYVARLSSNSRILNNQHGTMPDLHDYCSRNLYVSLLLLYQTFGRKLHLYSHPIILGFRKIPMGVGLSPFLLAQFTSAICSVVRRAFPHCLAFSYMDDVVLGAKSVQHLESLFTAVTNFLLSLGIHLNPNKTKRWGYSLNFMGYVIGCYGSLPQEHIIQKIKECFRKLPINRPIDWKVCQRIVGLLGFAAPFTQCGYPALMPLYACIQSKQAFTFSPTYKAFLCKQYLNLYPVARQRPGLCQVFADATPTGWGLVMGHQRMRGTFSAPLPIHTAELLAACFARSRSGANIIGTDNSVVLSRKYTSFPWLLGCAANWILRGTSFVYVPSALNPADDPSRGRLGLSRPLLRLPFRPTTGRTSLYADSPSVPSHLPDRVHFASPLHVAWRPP
Procedure: The transfected huh-7-HBP cell line was digested and suspended, 100 μl of cell suspension was added to each well of a 96-well plate at a concentration of 2×10^5/ml, and incubated overnight. 10 μl of drug was added to each well according to the pre-set dose, and each dose of each drug should be at least two replicate wells. After shaking gently, the cell suspension was put back into the incubator, and incubated for 1-24 h according to the specific situation. Nano-Glo@ LCS Dilution Buffer and Nano-Glo@ Live Cell Substrate two reagents in the Nano-Glo@Live Cell Assay System kit were mixed at a ratio of 20:1, and added to the cell plate to be tested at a ratio of 25 ul per 100 ul system. After shaking for 30 seconds, full wavelength luminosity was measured using BMG Labtech FLUOstar Omega ELIASA. The higher the luminescence value, the higher the HBP content of the target protein.
According to method 1, the degradation effect of target compounds I-X on HBV P protein at 5 different concentrations was determined.

HBV [2] = assay: Inhibition of HBV virus replication in HepG2.2.15 cells (HBV DNA level in supernatant); format: cell-based, hepatitis B virus; conditions: after 7 days of administration, P≤0.001 vs blank group
Procedure: In vitro cell model 1: HepG2 cells transfected with hepatitis B virus (HBV), namely HepG2 2.2.15 cells.
(§1) Positive drug control: entecavir (ETV).
(§2) Experimental procedure: HepG2.2.15 cells and stable toxigenic HepAD38 cells were divided into six experimental groups. The number of cells in each well was 7×10^4, and the amount of medium in each well was 500 μl. The first group was a blank control, the second group was a positive control, and 3.75 nM ETV was added; the third to sixth groups were added with 3.75 nM, 100 nM, 5 μM and 100 μM compound (I, TPD00203). The supernatant was collected on the 3rd day after administration and the HBV DNA level in the supernatant was detected. On the seventh day, the supernatant was collected again and the cells were pelleted, and the level of HBV DNA in the supernatant was detected.

HBV [3] = assay: Inhibition of HBV virus replication in HepAD38 cells (HBV DNA level in supernatant); format: cell-based, hepatitis B virus; conditions: for inhibition of virus replication: all tested dose levels 10 nM, P≤0.001; for inhibitory effect on virus replication: after 7 days, TPD00203 each dose group (3.75 nM, 100 nM, 5 μM, 100 μM), ETV 3.75 nM; for inhibition at 0.01 µM / inhibition at 0.1 µM / inhibition at 1 µM / inhibition at 10 µM: Hepatitis B virus, HepAD38 cell line, read-out: Antiviral activity of the compound at different concentrations; for inhibition at 1 µM: 1000 nM; for inhibition at 10 µM: 10000 nM
Procedure: In vitro cell model 2: Stable toxigenic HepAD38 cells.
as §1, §2
After the preliminary evaluation of the virus-inhibiting effect of TPD00203, the inhibitory effects of the same dose of TPD00203 and ETV were determined in HepAD38 cell line. ETV and TPD00203 were 4 dose groups of 10 nM, 100 nM, 1 μM, and 10 μM.
The inhibitory activity of compounds (I-X) on the virus in HepAD38 cell line was determined by the same method as in Example 6, and the results were shown in the following table.

HBV P protein = molecular target: T2, HBV P protein (Hepatitis B virus genotype D subtype ayw, UniProt P03156); assay: Degradation of flag-tagged HBV P protein in transfected Huh7 cells (Western Blot); format: cell-based
T2 construct: flag; expressed in transfected cells; host or cells: Huh7
T2 sequence (P03156 whole entry): as above
Procedure: In vitro cell model: Huh7.
Proteasome inhibitor: MG132
The Huh7 cells cultured in the medium containing 10 μM TPD00203 drug were used to transfect the flag-tagged P protein overexpression plasmid, and the medium containing 10 μM TPD00203 drug was changed 6 hours after transfection, and MG132 (final concentration 10 μM) was added 24 hours after transfection to inhibit the degradation of P protein, and cells were harvested after MG132 treatment for 12 hours. MG132 is a reversible proteasome inhibitor. After MG132 was removed, the cells were cultured in a medium containing 10 μM TPD00203 for 12 hours, and the cells were harvested. The expression of P protein was detected by Western Blot experiment. DMSO was used as a control.

[4] = HepAD38 cells, 7 days, 100 nM, 1 μM, 10 μM

C=C1[C@H](CO)[C@H](O)C[C@@H]1n1cnc2c(OCCCCCCCCCC(=O)N[C@H](C(=O)N3C[C@H](O)C[C@H]3C(=O)NCc3ccc(-c4scnc4C)cc3)C(C)(C)C)nc(N)nc21 [Compound I]
inhibition at 0.1 µM [1]: < 30%
inhibition at 0.3 µM [1]: 30 to 70%
inhibition at 1 µM [1]: 30 to 70%
inhibition at 3 µM [1]: > 70%
inhibition at 10 µM [1]: > 70%
inhibitory effect on virus replication (HBV [2]; 3.75 nM): significant inhibition of viral replication
inhibitory effect on virus replication (HBV [2]; 5 μM): significant inhibition of viral replication
inhibitory effect on virus replication (HBV [2]; 100 μM): significant inhibition of viral replication
virus-inhibiting effect compared with ETV at the same dose (HBV [3]; HepAD38 cells, 7 days, 10 nM, 100 nM, 1 μM, 10 μM): better virus-inhibiting effect than ETV
inhibition of virus replication (HBV [3]; [4]): significantly inhibit virus replication
inhibitory effect on virus replication (HBV [3]; HepAD38 cells): significant inhibitory effect on virus replication
inhibition at 0.01 µM (HBV [3]; 10 nM): > 60%
inhibition at 0.1 µM (HBV [3]; 100 nM): > 60%
inhibition at 1 µM (HBV [3]): > 60%
inhibition at 10 µM (HBV [3]): > 60%
P protein degradation (Western Blot) (HBV P protein; Huh7 cells transfected with flag-Polymerase plasmid, 10 μM TPD00203, 36 hours after transfection): promote P protein degradation

C=C1[C@H](CNC(=O)CCCCCCCCC(=O)N[C@H](C(=O)N2C[C@H](O)C[C@H]2C(=O)NCc2ccc(-c3scnc3C)cc2)C(C)(C)C)[C@H](O)C[C@@H]1n1cnc2c(=O)[nH]c(N)nc21 [Compound VI, N1-(((1R,3S)-3-(2-amino-6-oxo-1,6-dihydro-9H-purin-9-yl)-5-hydroxy-2-methylenecyclopentyl)methyl)-N10-((S)-1-((2S,4R)-4-hydroxy-2-((4-(4-methylthiazol-5-yl)benzyl)carbamoyl)pyrrolidin-1-yl)-3,3-dimethyl-1-oxobutan-2-yl) decanoic acid diamide]
inhibition at 0.1 µM [1]: < 30%
inhibition at 0.3 µM [1]: 30 to 70%
inhibition at 1 µM [1]: 30 to 70%
inhibition at 3 µM [1]: > 70%
inhibition at 10 µM [1]: > 70%
inhibition at 0.01 µM (HBV [3]; 10 nM): 10 to 30%
inhibition at 0.1 µM (HBV [3]; 100 nM): 30 to 60%
inhibition at 1 µM (HBV [3]): > 60%
inhibition at 10 µM (HBV [3]): > 60%

C=C1[C@H](CNC(=O)CN2CCN(CCCC(=O)N[C@H](C(=O)N3C[C@H](O)C[C@H]3C(=O)NCc3ccc(-c4scnc4C)cc3)C(C)(C)C)CC2)[C@H](O)C[C@@H]1n1cnc2c(=O)[nH]c(N)nc21 [Compound VII]
inhibition at 0.1 µM [1]: < 30%
inhibition at 0.3 µM [1]: < 30%
inhibition at 1 µM [1]: < 30%
inhibition at 3 µM [1]: 30 to 70%
inhibition at 10 µM [1]: 30 to 70%
inhibition at 0.01 µM (HBV [3]; 10 nM): 10 to 30%
inhibition at 0.1 µM (HBV [3]; 100 nM): 10 to 30%
inhibition at 1 µM (HBV [3]): 30 to 60%
inhibition at 10 µM (HBV [3]): 30 to 60%

C=C1[C@H](CO)[C@H](O)C[C@@H]1n1cnc2c(OCCOCCOCCCC(=O)N[C@H](C(=O)N3C[C@H](O)C[C@H]3C(=O)NCc3ccc(-c4scnc4C)cc3)C(C)(C)C)nc(N)nc21 [Compound V]
inhibition at 0.1 µM [1]: < 30%
inhibition at 0.3 µM [1]: 30 to 70%
inhibition at 1 µM [1]: 30 to 70%
inhibition at 3 µM [1]: 30 to 70%
inhibition at 10 µM [1]: 30 to 70%
inhibition at 0.01 µM (HBV [3]; 10 nM): 10 to 30%
inhibition at 0.1 µM (HBV [3]; 100 nM): 30 to 60%
inhibition at 1 µM (HBV [3]): 30 to 60%
inhibition at 10 µM (HBV [3]): 30 to 60%

C=C1[C@H](CO)[C@H](O)C[C@@H]1n1cnc2c(OCCN3CCC(CCCC(=O)N[C@H](C(=O)N4C[C@H](O)C[C@H]4C(=O)NCc4ccc(-c5scnc5C)cc4)C(C)(C)C)CC3)nc(N)nc21 [III]
inhibition at 0.1 µM [1]: < 30%
inhibition at 0.3 µM [1]: < 30%
inhibition at 1 µM [1]: 30 to 70%
inhibition at 3 µM [1]: 30 to 70%
inhibition at 10 µM [1]: > 70%
inhibition at 0.01 µM (HBV [3]; 10 nM): > 60%
inhibition at 0.1 µM (HBV [3]; 100 nM): > 60%
inhibition at 1 µM (HBV [3]): > 60%
inhibition at 10 µM (HBV [3]): > 60%

C=C1[C@H](CO)[C@H](O)C[C@@H]1n1cnc2c(OCCN3CCN(CCCC(=O)N[C@H](C(=O)N4C[C@H](O)C[C@H]4C(=O)NCc4ccc(-c5scnc5C)cc4)C(C)(C)C)CC3)nc(N)nc21 [II]
inhibition at 0.1 µM [1]: < 30%
inhibition at 0.3 µM [1]: < 30%
inhibition at 1 µM [1]: < 30%
inhibition at 3 µM [1]: 30 to 70%
inhibition at 10 µM [1]: 30 to 70%
inhibition at 0.01 µM (HBV [3]; 10 nM): 10 to 30%
inhibition at 0.1 µM (HBV [3]; 100 nM): 10 to 30%
inhibition at 1 µM (HBV [3]): 30 to 60%
inhibition at 10 µM (HBV [3]): > 60%

C=C1[C@H](CNC(=O)CN2CCC(OCCC(=O)N[C@H](C(=O)N3C[C@H](O)C[C@H]3C(=O)NCc3ccc(-c4scnc4C)cc3)C(C)(C)C)CC2)[C@H](O)C[C@@H]1n1cnc2c(=O)[nH]c(N)nc21 [IX]
inhibition at 0.01 µM (HBV [3]; 10 nM): 30 to 60%
inhibition at 0.1 µM (HBV [3]; 100 nM): 30 to 60%
inhibition at 1 µM (HBV [3]): > 60%
inhibition at 10 µM (HBV [3]): > 60%

CC(C)C[C@@H](C=O)NC(=O)[C@H](CC(C)C)NC(=O)[C@H](CC(C)C)NC(=O)OCc1ccccc1 [MG132, reference compound] (Cbz-Leu-Leu-Leu-aldehyde)
effect of proteasome inhibitor on drug-induced P protein degradation (HBV P protein; Huh7 cells, MG132 final concentration 10 μM added 24 hours after transfection, with 10 μM TPD00203): inhibited drug degradation

C=C1[C@H](CNC(=O)CN2CCC(CCCC(=O)N[C@H](C(=O)N3C[C@H](O)C[C@H]3C(=O)NCc3ccc(-c4scnc4C)cc3)C(C)(C)C)CC2)[C@H](O)C[C@@H]1n1cnc2c(=O)[nH]c(N)nc21 [VIII]
inhibition at 0.1 µM [1]: < 30%
inhibition at 0.3 µM [1]: < 30%
inhibition at 1 µM [1]: 30 to 70%
inhibition at 3 µM [1]: 30 to 70%
inhibition at 10 µM [1]: > 70%
inhibition at 0.01 µM (HBV [3]; 10 nM): 30 to 60%
inhibition at 0.1 µM (HBV [3]; 100 nM): 30 to 60%
inhibition at 1 µM (HBV [3]): 30 to 60%
inhibition at 10 µM (HBV [3]): > 60%

C=C1[C@H](CO)[C@@H](O)C[C@@H]1n1cnc2c(=O)[nH]c(N)nc21 [entecavir, reference compound]
inhibitory effect on virus replication (HBV [2]; 3.75 nM): significant inhibitory effect on virus replication
inhibition of virus replication (HBV [3]; [4]): significantly inhibit virus replication
inhibitory effect on virus replication (HBV [3]; HepAD38 cells): significant inhibitory effect on virus replication
